Assay results reported in patent US20220073883A1, “COMPOSITIONS AND METHODS FOR GENERATION OF HEART FIELD-SPECIFIC PROGENITOR CELLS” (The Johns Hopkins University, priority 2018, published 2022).

How the values were obtained:
Format in all cases: cell-based, mouse
[1] = tested on: ESC-derived cardiac spheroids; assay: cardiogenesis: cTnT+ cardiomyocytes in cardiac spheroids at day 9 (flow cytometry)
Text: Next, an embryonic stem cell (ESC) line (ESCHcn4-GFP; Tbx1-Cre Ai9) was established from the mice to determine if heart field specification can be recapitulated in a PSC system. It was hypothesized that a 3D multicellular system would better resemble heart field development in vivo, as early development is a highly dynamic process that involves tissue-tissue interactions between multiple cell types. Since CPCs are specified during mid-late gastrulation 7, 8, multicellular 3D spheroids were generated with the PSCs and treated them with various concentrations of Activin A and Bmp4 to determine whether induction of the early mesoderm influences heart field specification (FIGS. 1C and 1D). After 5 days of differentiation (120 h), GFP+ and RFP+ cells started to appear in the spheroids. The spheroids were analyzed for GFP+ and RFP+ cells by fluorescent activated cell sorting (FACS) at day 5.5 (132 h). […] The double positive GFP+/RFP+ cells correlated with the total number of GFP+ and RFP+ cells (FIG. 6J) and were sporadically interspersed within the GFP+ domain (FIG. 6K).
The overall effects on cardiogenesis were evaluated by analyzing the number of cardiomyocytes at day 9 (FIG. 6L).
Mouse ESCs and human iPSCs were maintained and differentiated as previously described^5, 43, 68 Briefly, mESCs were maintained on gelatin-coated dishes in maintenance medium (Glasgow minimum essential medium supplemented with 10% fetal bovine serum and […] Chir99021 and 1 μM PD98059 or 1000 U/ml ESGRO (Millipore, Billerica, Mass.), Glutamax, sodium pyruvate, MEM non-essential amino acids (Thermo Fisher Scientific). For spheroid formation and differentiation, mouse ESCs were plated in IMDM/Ham's F12 (Cellgro) (3:1) supplemented with N2, B27, penicillin/streptomycin, 2 mM GlutaMAX, 0.05% BSA, 5 ng/ml L-ascorbic acid (Sigma-Aldrich) and α-monothioglycerol (MTG; Sigma-Aldrich) at a final density of 100,000 cells/ml to allow spheroid formation. After 48 h spheroids were collected and transferred to ultra-low attachment plastic surface and induced for 40 hours with Activin A, Bmp4, Wnt3A, Wnt5A, Wnt11 (R&D Systems) alone or in combination. Human iPSCs were maintained in Geltrex-coated T25 flasks using Essential 8 medium. For spheroid formation and differentiation, hiPSCs were plated in RPMI plus B27 minus insulin with Bmp4 and CHIR99021 and incubated for 48 h. […]
Mouse embryos (E7.75) were dissected using forceps under a stereomicroscope (Zeiss) and regions of interest were dissociated and harvested using TrypLE. […] Single-cells were analyzed for RFP/GFP expression or sorted using a SH800 Cell sorter (Sony Biotechnologies). Live cells were analyzed for RFP and GFP expression and stained with antibodies targeting for the presence of appropriate markers. […] Data was analyzed using FlowJo software.

[2] = tested on: ESC-derived cardiac spheroids (Hcn4-GFP; Tbx1-Cre; Ai9); assay: heart field specification: Hcn4-GFP+ and Tbx1-Cre, RFP+ CPCs in cardiac spheroids by FACS at day 5.5; settings: increasing levels of the factor; day 5.5
Text: Next, an embryonic stem cell (ESC) line (ESCHcn4-GFP; Tbx1-Cre Ai9) was established from the mice to determine if heart field specification can be recapitulated in a PSC system. It was hypothesized that a 3D multicellular system would better resemble heart field development in vivo, as early development is a highly dynamic process that involves tissue-tissue interactions between multiple cell types. Since CPCs are specified during mid-late gastrulation 7, 8, multicellular 3D spheroids were generated with the PSCs and treated them with various concentrations of Activin A and Bmp4 to determine whether induction of the early mesoderm influences heart field specification (FIGS. 1C and 1D).
IPA utilizes an input gene list and a curated database of literature-derived pathways to infer which canonical pathways are most significant to the input data set. The analysis was focused on pathways related to ‘organism growth and development’. […] The effect of Bmp signals was evaluated during heart field specification. In order to minimize the possibility of influencing heart field cells after induction, all of the data were analyzed within 12 hs after the appearance of GFP^+/RFP^+ cells.
(§1) Mouse ESCs and human iPSCs were maintained and differentiated as previously described^5, 43, 68 Briefly, mESCs were maintained on gelatin-coated dishes in maintenance medium (Glasgow minimum essential medium supplemented with 10% fetal bovine serum and […] Chir99021 and 1 μM PD98059 or 1000 U/ml ESGRO (Millipore, Billerica, Mass.), Glutamax, sodium pyruvate, MEM non-essential amino acids (Thermo Fisher Scientific). For spheroid formation and differentiation, mouse ESCs were plated in IMDM/Ham's F12 (Cellgro) (3:1) supplemented with N2, B27, penicillin/streptomycin, 2 mM GlutaMAX, 0.05% BSA, 5 ng/ml L-ascorbic acid (Sigma-Aldrich) and α-monothioglycerol (MTG; Sigma-Aldrich) at a final density of 100,000 cells/ml to allow spheroid formation. After 48 h spheroids were collected and transferred to ultra-low attachment plastic surface and induced for 40 hours with Activin A, Bmp4, Wnt3A, Wnt5A, Wnt11 (R&D Systems) alone or in combination. Human iPSCs were maintained in Geltrex-coated T25 flasks using Essential 8 medium. For spheroid formation and differentiation, hiPSCs were plated in RPMI plus B27 minus insulin with Bmp4 and CHIR99021 and incubated for 48 h. After 48 h media was changed to RPMI plus B27 minus insulin. The hiPSC line used in this study was developed by Dr. Linzhao Cheng, the Johns Hopkins University, and had was generated from a de-identified patient using an approved IRB protocol.
Mouse embryos (E7.75) were dissected using forceps under a stereomicroscope (Zeiss) and regions of interest were dissociated and harvested using TrypLE. Embryoid bodies (EBs) and cells were dissociated and harvested using TrypLE. Single-cells were analyzed for RFP/GFP expression or sorted using a SH800 Cell sorter (Sony Biotechnologies). Live cells were analyzed for RFP and GFP expression and stained with antibodies targeting for the presence of appropriate markers. […] Data was analyzed using FlowJo software.

[3] = tested on: ESC-derived cardiac spheroids; assay: qPCR of FHF (tbx5, hcn4) and SHF (tbx1, fgf10) markers in treated spheroids; settings: Bmp4 (1.25 ng/ml) alone
Experimental: To investigate the crosstalk between Bmp and Wnt signals, the spheroids were treated with Bmp4 and Wnts in combinations and analyzed expression levels of FHF (tbx5, hcn4) and SHF (tbx1, fgf10) markers.
as §1
RNA isolation was performed using either RNeasy Micro Kit (Cat #74004, Qiagen) or […]® PicoPure® RNA Isolation Kit following the manufacturer's instructions, and cDNA was generated using the high-capacity cDNA reverse transcription kit (Applied Biosystems). qPCR reactions were performed using the Taqman (Applied Biosystems) or Sybr Select qPCR mix (Thermo Fisher) with indicated primers. Gene expression levels were normalized to Gapdh. For the clonal cell-fate analysis, single Isl1-Cre RFP+, Cxcr4− and Isl1-Cre RFP^+, Cxcr4^+ cells were sorted at day 5.5 into 384-well plates and allowed to grow and differentiate for 7 days. […] RNA was isolated from 24 wells with colonies from Cxcr4− and Cxcr4+ sorted cells, respectively. Ct values<30 were considered positive. All samples were also analyzed for gapdh to exclude false-positive results.

canonical Wnt activity = assay: Topflash luciferase assay; settings: Bmp4 (1.25 ng/ml) alone; 88 h of differentiation
Experimental: To test this, canonical Wnt activity was measured with its readout Topflash.
For Tbx1 and Tbx5 knockdown experiments, Tbx1 and Tbx5 ON-TARGETplus SMARTpool siRNA or scrambled siRNA (Dharmacon/Thermo Fisher Scientic) was used at 5 nM for cell transfection. Cells were transfected with Lipofectamine LTX (Life Technologies) in single-cell suspensions. For TOP-flash luciferase assays, mESCs were transfected with Topflash constructs and Renilla constructs and analyzed as previously described 5.

- topflash activity (canonical Wnt activity): increased
Substance: Bmp4: bone morphogenic protein (Bmp) 4, R&D Systems
- number of cTnT+ cardiomyocytes ([1]; 1.25 ng/ml Bmp4, day 9): > 30%
- difference in number of cTnT+ cardiomyocytes compared to 0.5 ng/ml Bmp4 ([1]; 1.25 ng/ml vs 0.5 ng/ml Bmp4, day 9): > 10 fold
- effect on cardiogenesis ([1]; varying/increasing concentrations, cTnT+ at day 9): profound effect
- induction of GFP+ cells (FHF) [2]: promoted induction
- induction of RFP+ cells (SHF) [2]: promoted induction
- expression of FHF markers (tbx5, hcn4) [3]: increased expression
- expression of SHF markers (tbx1, fgf10) [3]: increased expression
